Measured values published in PMC8277928, “Influence of Terminal Functionality on the Crystal Packing Behaviour and Cytotoxicity of Aromatic Oligoamides” (Frontiers in Chemistry, 2021).
Read-outs that look alike come from different tables or passages of the source.

Legend:
[1] = tested on: MCF-7 breast adenocarcinoma cells; test: MTT cytotoxicity (chemosensitivity) assay, 96 h; format: cell-based, human; conditions: for IC50: 96 h incubation, MTT, 37°C, 5% CO2, read-out: IC50 values (μM) ± SD, MCF-7; for Selectivity Index (SI), MCF-7 compared to PNT-2: IC50 PNT-2 divided by IC50 MCF-7, * = minimum SI value
Method: (§1) The IC50 values were obtained via the MTT assay after a 96 h incubation period of each compound with the cells at 37°C and 5% CO2 (Table 2; Figure 6). […]
(§2) In vitro chemosensitivity assays were performed against human ovarian carcinoma (A2780), cisplatin-resistant human ovarian carcinoma (A2780cisR) and human breast adenocarcinomas (MCF-7 and MDA-MB-231). Additionally, growth inhibitory effects were also tested against non-malignant prostate cell line immortalised with SV40, PNT-2. All cell lines were provided by the Institute of Cancer Therapeutics, University of Bradford and were routinely maintained as monolayer cultures in RPMI 1640 media supplemented with 10% foetal calf serum, sodium pyruvate (1 mM) and L-glutamine (2 mM). All assays were conducted in 96-well round bottom plates, with control lanes for media and 100% cell growth. Cell concentrations of 1 x 10^4 cells/mL were used, and 100 µL (or 100 µL media in control lane 1) of cell suspension were incubated for 24 h at 37 °C and 5% CO2 prior to drug exposure.
(§3) 100 mM stock solutions, which were further diluted with complete me dia to provide a range of final concentrations. After 24 h, 100 μL of the drug/media solutions were added to the plates (columns 3-12 drug concentrations, with 100 µL media in the control lanes), and then the plates incubated for 96 h at 37°C and 5% CO2. All drug solutions were added to the plates so that the final DMSO concentrations were <0.1% (v/v) in all cases. After 96 h, 3-(4,5-dimethylthiazol-2-yl)-2,5-diphenyltetrazolium bromide (MTT) (20 µL, 5 mg/mL) was added to each well and incubated for 3 h at 37 °C and 5% CO2. All solutions were then removed via pipette, 150 μL DMSO added to each well and the formazan crystals mixed thoroughly. A Thermo Scientific Multiscan EX microplate photometer was used to measure the absorbance of each well at 540 nm. Percentage cell viabilities were determined on a logarithmic scale, and the half maximal inhibitory concentration (IC50) determined from a plot of % cell survival versus concentration (µM). Each of the experiments was performed as duplicate technical repeats and triplicate experimental repeats, with mean values as the IC50 ± Standard Deviation (SD).

[2] = tested on: MDA-MB-231 breast adenocarcinoma cells; test: MTT cytotoxicity (chemosensitivity) assay, 96 h; format: cell-based, human; conditions: for IC50: 96 h incubation, MTT, 37°C, 5% CO2, read-out: IC50 values (μM) ± SD, MDA-MB-231; for Selectivity Index (SI), MDA-MB-231 compared to PNT-2: IC50 PNT-2 divided by IC50 MDA-MB-231, * = minimum SI value
Method: as §1, §2, §3

[3] = tested on: A2780 cisplatin-sensitive ovarian carcinoma cells; test: MTT cytotoxicity (chemosensitivity) assay, 96 h; format: cell-based, human; conditions: for IC50: 96 h incubation, MTT, 37°C, 5% CO2, read-out: IC50 values (μM) ± SD, A2780; for Selectivity Index (SI), A2780 compared to PNT-2: IC50 PNT-2 divided by IC50 A2780, * = minimum SI value
Method: as §1, §2, §3

[4] = tested on: A2780cisR cisplatin-resistant ovarian carcinoma cells; test: MTT cytotoxicity (chemosensitivity) assay, 96 h; format: cell-based, human; conditions: for IC50: 96 h incubation, MTT, 37°C, 5% CO2, read-out: IC50 values (μM) ± SD, A2780cisR; for Selectivity Index (SI), A2780cisR compared to PNT-2: IC50 PNT-2 divided by IC50 A2780cisR, * = minimum SI value
Method: as §1, §2, §3

[5] = tested on: PNT-2 non-malignant prostate cell line (immortalized with SV40); test: MTT cytotoxicity (chemosensitivity) assay, 96 h, non-malignant cells; format: cell-based, human; conditions: 37°C, 5% CO2, read-out: IC50 values (μM) ± SD, PNT-2
Method: A SI value >1 indicates increased selectivity for the cancerous cell line over the non-malignant one, whilst a SI value <1 indicates the inverse (i.e., increased selectivity for the non-malignant cell line over the cancerous one). […]
as §2, §3

[6] = tested on: A2780, A2780cisR, MCF-7 and MDA-MB-231 cells; test: MTT cytotoxicity assay, 96 h, range over all cancer cell lines; format: cell-based; conditions: Homo sapiens, read-out: IC50 values against all cell lines (range)
Method: as §1
as §2, with “Cell concentrations of 1 x 10^4 cells/mL were used, and 100 µL (or 100 µL media in control lane 1) of cell suspension were incubated for 24 h at 37 °C and 5% CO2 prior to drug exposure.” left out
100 mM stock solutions, which were further diluted with complete me dia to provide a range of final concentrations. […] A Thermo Scientific Multiscan EX microplate photometer was used to measure the absorbance of each well at 540 nm. Percentage cell viabilities were determined on a logarithmic scale, and the half maximal inhibitory concentration (IC50) determined from a plot of % cell survival versus concentration (µM). […]

[7] = Homo sapiens, PNT2, 96 h incubation

SMILES | IC50 [1] | Selectivity Index (SI), MCF-7 compared to PNT-2 [1] | IC50 [2] | Selectivity Index (SI), MDA-MB-231 compared to PNT-2 [2] | IC50 [3] | Selectivity Index (SI), A2780 compared to PNT-2 [3] | IC50 [4] | Selectivity Index (SI), A2780cisR compared to PNT-2 [4] | IC50 ([5]; 96 h incubation) | cytotoxicity in words, MCF-7 ([1]; 96 h MTT) | IC50 ([1]; Homo sapiens, MCF7) | cytotoxicity in words, MDA-MB-231 ([2]; 96 h MTT) | IC50 ([2]; Homo sapiens, MDA-MB-231) | IC50 ([3]; Homo sapiens, A2780) | cytotoxicity in words, A2780cisR ([4]; 96 h MTT) | IC50 ([4]; Homo sapiens, A2780cisR) | IC50 [5, 7] | IC50 [6] | cytotoxicity in words, A2780 ([3]; 96 h MTT)
O=C1[O][Pt]2([NH][C@@H]3CCCC[C@H]3[NH]2)[O]C1=O [OXA, oxaliplatin, reference compound] | 2.6 ± 0.2 µM | 0.5 | 2.5 ± 0.6 µM | 0.5 | 0.505 ± 0.002 µM | 2.6 | 2.09 ± 0.03 µM | 0.6 | 1.3 ± 0.2 µM |  |  |  |  |  |  |  |  |  | 
N.N.O=C([O-])C1(C(=O)[O-])CCC1.[Pt+2] [CARB, carboplatin, reference compound] | > 100 µM | > 0.3 | 33 ± 2 µM | 0.8 | 17 ± 1 µM |  | > 100 µM | > 0.3 | 27 ± 2 µM |  |  |  |  |  |  |  |  |  | 
[NH2][Pt]([NH2])([Cl])[Cl] [CDDP, cisplatin, reference compound] | 1.5 ± 0.2 µM | 5.6 | 3.07 ± 0.02 µM | 2.8 | 1.3 ± 0.1 µM |  | 14 ± 1 µM | 0.6 | 8.5 ± 0.4 µM |  |  |  |  |  |  |  |  |  | 
CC(C)(C)OC(=O)Nc1ccccc1NC(=O)c1cccc(C(=O)Nc2ccccc2NC(=O)OC(C)(C)C)n1 [Compound 2] |  | > 1.2 |  | > 1.4 |  | > 4.2 |  |  |  | moderate to non-cytotoxic | 84 ± 3 µM | moderate to non-cytotoxic | 69 ± 3 µM | 24 ± 0.9 µM | moderate to non-cytotoxic | > 100 µM | > 100 µM |  | 
CC(=O)Nc1ccccc1NC(=O)c1cccc(C(=O)Nc2ccccc2NC(C)=O)n1 [Compound 1] |  |  |  | > 1.6 |  | > 1.3 |  |  |  |  | > 100 µM |  | 63 ± 4 µM | 77 ± 5 µM |  | > 100 µM | > 100 µM | ≥ 63 µM | 
Nc1ccccc1NC(=O)c1cccc(C(=O)Nc2ccccc2N)n1 [Compound 3] |  |  |  |  |  |  |  | > 1.6 |  |  | > 100 µM |  | > 100 µM | > 100 µM |  | 61 ± 2 µM | > 100 µM |  | non-toxic
